Results from article PMC10211317, “Identification of ARUK2002821 as an isoform-selective PI5P4Kα inhibitor” (RSC Medicinal Chemistry, 2023).

Experiments:
Assay in all cases: Premier Screen kinase panel (MRC PPU)
Type in all cases: biochemical
CK1γ2 = CK1γ2 (Homo sapiens, UniProt P78368); settings: CK1γ2 (Entrez CSNK1D), read-out: Residual activity (%)
Description: (§1) room temperature with shaking for 30 minutes. The kinase concentration in the eluates was measured by qPCR.
(§2) using ADP-GloTM assay at the MRC PPU International Centre for Kinase Profiling, University of Dundee.
(§3) Conducted by MRC PPU International Centre
(§4) Conducted by MRC PPU International Centre for […]

HER4 = HER4 (Homo sapiens, UniProt Q15303); settings: HER4 (Entrez ERBB4), read-out: Residual activity (%)
Description: as §1, §2, §3, §4

EPH-B2 = EPH-B2 (Homo sapiens, UniProt P29323); settings: EPH-B2 (Entrez EPHB2), read-out: Residual activity (%)
Description: as §1, §2, §3, §4

LKB1 = LKB1 (Homo sapiens, UniProt Q15831); settings: LKB1 (Entrez STK11), read-out: Residual activity (%)
Description: as §1, §2, §3, §4

DYRK1A = DYRK1A (Homo sapiens, UniProt Q13627); settings: DYRK1A (Entrez DYRK1A), read-out: Residual activity (%)
Description: as §1, §2, §3, §4

ERK2 = ERK2 (Homo sapiens, UniProt P28482); settings: ERK2 (Entrez MAPK1), read-out: Residual activity (%)
Description: as §1, §2, §3, §4

MPSK1 = MPSK1 (Homo sapiens, UniProt O75716); settings: MPSK1 (Entrez STK16), read-out: Residual activity (%)
MPSK1, sequence (O75716 whole entry): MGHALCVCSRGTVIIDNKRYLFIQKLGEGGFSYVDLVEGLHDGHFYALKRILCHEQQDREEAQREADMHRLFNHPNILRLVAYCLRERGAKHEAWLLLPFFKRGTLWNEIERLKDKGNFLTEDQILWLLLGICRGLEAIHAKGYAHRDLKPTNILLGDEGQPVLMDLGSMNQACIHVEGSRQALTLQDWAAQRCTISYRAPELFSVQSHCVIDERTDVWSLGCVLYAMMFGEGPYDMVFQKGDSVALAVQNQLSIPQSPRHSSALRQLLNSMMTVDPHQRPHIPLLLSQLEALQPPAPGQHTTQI
Description: as §1, §2, §3, §4

MINK1 = MINK1 (Homo sapiens, UniProt Q8N4C8); settings: MINK1 (Entrez MINK1), read-out: Residual activity (%)
Description: as §1, §2, §3, §4

BTK = BTK (Homo sapiens, UniProt Q06187); settings: BTK (Entrez BTK), read-out: Residual activity (%)
Description: as §1, §2, §3, §4

EPH-A4 = EPH-A4 (Homo sapiens, UniProt P54764); settings: EPH-A4 (Entrez EPHA4), read-out: Residual activity (%)
EPH-A4, sequence (P54764 20-986): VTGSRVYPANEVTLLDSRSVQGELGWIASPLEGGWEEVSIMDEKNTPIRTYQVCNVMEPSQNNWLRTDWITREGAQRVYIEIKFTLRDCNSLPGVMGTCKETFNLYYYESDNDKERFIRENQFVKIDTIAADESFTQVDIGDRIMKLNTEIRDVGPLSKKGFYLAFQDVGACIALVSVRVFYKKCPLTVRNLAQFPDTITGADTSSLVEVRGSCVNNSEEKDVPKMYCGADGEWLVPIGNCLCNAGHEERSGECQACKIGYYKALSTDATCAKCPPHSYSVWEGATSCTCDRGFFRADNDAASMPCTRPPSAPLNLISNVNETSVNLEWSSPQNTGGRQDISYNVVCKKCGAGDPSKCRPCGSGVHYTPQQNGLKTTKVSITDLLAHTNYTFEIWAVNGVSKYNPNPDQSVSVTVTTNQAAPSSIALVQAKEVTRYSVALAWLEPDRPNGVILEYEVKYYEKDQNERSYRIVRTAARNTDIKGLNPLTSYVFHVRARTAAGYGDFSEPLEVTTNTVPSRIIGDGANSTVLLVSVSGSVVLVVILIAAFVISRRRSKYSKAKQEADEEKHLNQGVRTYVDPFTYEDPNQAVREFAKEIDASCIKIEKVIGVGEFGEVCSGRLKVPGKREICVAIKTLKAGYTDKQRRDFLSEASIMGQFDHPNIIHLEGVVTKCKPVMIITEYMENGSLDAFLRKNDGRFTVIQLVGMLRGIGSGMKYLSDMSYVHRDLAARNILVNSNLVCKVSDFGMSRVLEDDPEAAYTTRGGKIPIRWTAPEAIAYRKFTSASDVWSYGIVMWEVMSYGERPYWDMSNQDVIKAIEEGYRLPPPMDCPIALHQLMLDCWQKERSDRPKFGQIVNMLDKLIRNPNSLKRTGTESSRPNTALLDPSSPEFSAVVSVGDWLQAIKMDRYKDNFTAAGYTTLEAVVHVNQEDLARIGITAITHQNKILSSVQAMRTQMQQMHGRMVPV
Description: as §1, §2, §3, §4

MKK6 = MKK6 (Homo sapiens, UniProt P52564); settings: MKK6 (Entrez MAP2K6), read-out: Residual activity (%)
Description: as §1, §2, §3, §4

RIPK2 = RIPK2 (Homo sapiens, UniProt O43353); settings: RIPK2 (Entrez RIPK2), read-out: Residual activity (%)
RIPK2, sequence (O43353 whole entry): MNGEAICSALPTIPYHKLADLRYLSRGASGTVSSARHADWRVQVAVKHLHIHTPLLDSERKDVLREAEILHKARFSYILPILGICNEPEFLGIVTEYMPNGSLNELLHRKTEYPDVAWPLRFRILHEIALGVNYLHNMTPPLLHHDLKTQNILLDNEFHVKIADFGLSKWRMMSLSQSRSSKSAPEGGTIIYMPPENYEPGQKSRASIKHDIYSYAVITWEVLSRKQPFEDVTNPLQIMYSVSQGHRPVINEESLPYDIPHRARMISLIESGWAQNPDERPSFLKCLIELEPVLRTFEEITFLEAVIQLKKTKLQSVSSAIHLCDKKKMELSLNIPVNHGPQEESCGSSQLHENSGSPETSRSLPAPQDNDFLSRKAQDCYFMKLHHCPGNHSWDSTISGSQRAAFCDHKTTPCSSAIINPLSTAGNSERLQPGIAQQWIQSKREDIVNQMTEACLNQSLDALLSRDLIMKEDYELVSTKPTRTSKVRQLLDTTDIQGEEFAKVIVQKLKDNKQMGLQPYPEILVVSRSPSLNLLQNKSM
Description: as §1, §2, §3, §4

p38b MAPK = p38b MAPK (Homo sapiens, UniProt Q15759); settings: p38b MAPK (Entrez MAPK11), read-out: Residual activity (%)
Description: as §1, §2, §3, §4

PAK2 = PAK2 (Homo sapiens, UniProt Q13177); settings: PAK2 (Entrez PAK2), read-out: Residual activity (%)
Description: as §1, §2, §3, §4

OSR1 = OSR1 (Homo sapiens, UniProt O95747); settings: OSR1 (Entrez OXSR1), read-out: Residual activity (%)
Description: as §1, §2, §3, §4

CAMK1 = CAMK1 (Homo sapiens, UniProt Q14012); settings: CAMK1 (Entrez CAMK1), read-out: Residual activity (%)
Description: as §1, §2, §3, §4

CDK2-Cyclin A = CDK2-Cyclin A (Homo sapiens, UniProt P24941); settings: CDK2-Cyclin A (Entrez CDK2 + CCNA2), read-out: Residual activity (%)
Description: as §1, §2, §3, §4

MNK2 = MNK2 (Homo sapiens, UniProt Q9HBH9); settings: MNK2 (Entrez MKNK2), read-out: Residual activity (%)
Description: as §1, §2, §3, §4

CK2 = CK2 (Homo sapiens, UniProt P68400); settings: CK2 (Entrez CSNK2A1), read-out: Residual activity (%)
Description: as §1, §2, §3, §4

JNK1 = JNK1 (Homo sapiens, UniProt P45983); settings: JNK1 (Entrez MAPK8), read-out: Residual activity (%)
JNK1, sequence (P45983 whole entry): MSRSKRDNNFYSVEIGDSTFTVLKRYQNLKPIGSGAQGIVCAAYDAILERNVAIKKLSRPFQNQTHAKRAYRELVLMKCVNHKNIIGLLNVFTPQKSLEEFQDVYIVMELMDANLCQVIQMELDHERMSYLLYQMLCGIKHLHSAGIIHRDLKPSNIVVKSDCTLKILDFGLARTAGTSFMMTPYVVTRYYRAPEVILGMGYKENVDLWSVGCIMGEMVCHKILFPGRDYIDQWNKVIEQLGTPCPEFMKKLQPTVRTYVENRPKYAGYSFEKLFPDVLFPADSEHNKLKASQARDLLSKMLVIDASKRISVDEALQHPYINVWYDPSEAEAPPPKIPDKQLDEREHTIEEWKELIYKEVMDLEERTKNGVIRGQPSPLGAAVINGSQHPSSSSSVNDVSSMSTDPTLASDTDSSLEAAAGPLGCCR
Description: as §1, §2, §3, §4

SIK3 = SIK3 (Homo sapiens, UniProt Q9Y2K2); settings: SIK3 (Entrez SIK3), read-out: Residual activity (%)
Description: as §1, §2, §3, §4

PKCa = PKCa (Homo sapiens, UniProt P17252); settings: PKCa (Entrez PRKCA), read-out: Residual activity (%)
Description: as §1, §2, §3, §4

MLK1 = MLK1 (Homo sapiens, UniProt P80192); settings: MLK1 (Entrez MAP3K9), read-out: Residual activity (%)
MLK1, sequence (P80192 whole entry, species assumed): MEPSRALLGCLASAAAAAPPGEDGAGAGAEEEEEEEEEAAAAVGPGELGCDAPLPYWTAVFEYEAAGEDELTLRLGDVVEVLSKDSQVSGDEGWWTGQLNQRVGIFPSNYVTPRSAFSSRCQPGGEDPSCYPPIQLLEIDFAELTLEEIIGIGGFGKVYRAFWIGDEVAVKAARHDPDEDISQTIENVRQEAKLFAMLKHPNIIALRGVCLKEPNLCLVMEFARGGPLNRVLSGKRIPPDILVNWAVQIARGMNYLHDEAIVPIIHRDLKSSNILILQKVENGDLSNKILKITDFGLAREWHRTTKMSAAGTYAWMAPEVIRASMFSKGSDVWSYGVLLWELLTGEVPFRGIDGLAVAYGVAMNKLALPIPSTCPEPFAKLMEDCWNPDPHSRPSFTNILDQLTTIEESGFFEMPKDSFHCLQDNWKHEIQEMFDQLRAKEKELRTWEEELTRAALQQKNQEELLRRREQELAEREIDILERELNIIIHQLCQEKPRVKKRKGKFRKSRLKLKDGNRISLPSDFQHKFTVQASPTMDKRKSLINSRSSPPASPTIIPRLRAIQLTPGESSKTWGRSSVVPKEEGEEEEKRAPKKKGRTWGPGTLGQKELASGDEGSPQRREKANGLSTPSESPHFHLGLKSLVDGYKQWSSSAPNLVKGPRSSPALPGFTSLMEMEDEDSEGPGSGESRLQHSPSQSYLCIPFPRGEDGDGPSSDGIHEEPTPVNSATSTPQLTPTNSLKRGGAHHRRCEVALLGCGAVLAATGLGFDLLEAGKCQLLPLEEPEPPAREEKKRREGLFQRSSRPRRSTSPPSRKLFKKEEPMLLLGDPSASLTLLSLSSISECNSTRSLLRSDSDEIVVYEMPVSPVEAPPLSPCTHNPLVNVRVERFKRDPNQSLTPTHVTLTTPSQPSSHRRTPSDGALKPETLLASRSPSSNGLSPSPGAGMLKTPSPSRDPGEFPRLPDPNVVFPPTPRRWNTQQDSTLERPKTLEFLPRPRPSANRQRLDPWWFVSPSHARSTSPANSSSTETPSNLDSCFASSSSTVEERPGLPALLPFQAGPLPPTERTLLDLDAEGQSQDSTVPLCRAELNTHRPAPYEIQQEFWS
Description: as §1, §2, §3, §4

GSK3b = GSK3b (Homo sapiens, UniProt P49841); settings: GSK3b (Entrez GSK3B), read-out: Residual activity (%)
GSK3b, sequence (P49841 whole entry): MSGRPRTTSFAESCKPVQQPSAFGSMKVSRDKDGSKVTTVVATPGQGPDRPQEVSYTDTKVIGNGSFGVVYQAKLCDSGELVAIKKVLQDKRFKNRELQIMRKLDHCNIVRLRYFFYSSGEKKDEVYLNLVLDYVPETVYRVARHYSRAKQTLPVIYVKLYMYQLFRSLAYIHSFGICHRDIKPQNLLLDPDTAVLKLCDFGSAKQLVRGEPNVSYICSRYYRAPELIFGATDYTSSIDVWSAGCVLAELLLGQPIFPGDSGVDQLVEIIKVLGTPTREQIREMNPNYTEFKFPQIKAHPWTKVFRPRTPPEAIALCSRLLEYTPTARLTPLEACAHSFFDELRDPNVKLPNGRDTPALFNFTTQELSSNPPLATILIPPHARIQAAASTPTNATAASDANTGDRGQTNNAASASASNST
Description: as §1, §2, §3, §4

MARK3 = MARK3 (Homo sapiens, UniProt P27448); settings: MARK3 (Entrez MARK3), read-out: Residual activity (%)
MARK3, sequence (P27448 whole entry): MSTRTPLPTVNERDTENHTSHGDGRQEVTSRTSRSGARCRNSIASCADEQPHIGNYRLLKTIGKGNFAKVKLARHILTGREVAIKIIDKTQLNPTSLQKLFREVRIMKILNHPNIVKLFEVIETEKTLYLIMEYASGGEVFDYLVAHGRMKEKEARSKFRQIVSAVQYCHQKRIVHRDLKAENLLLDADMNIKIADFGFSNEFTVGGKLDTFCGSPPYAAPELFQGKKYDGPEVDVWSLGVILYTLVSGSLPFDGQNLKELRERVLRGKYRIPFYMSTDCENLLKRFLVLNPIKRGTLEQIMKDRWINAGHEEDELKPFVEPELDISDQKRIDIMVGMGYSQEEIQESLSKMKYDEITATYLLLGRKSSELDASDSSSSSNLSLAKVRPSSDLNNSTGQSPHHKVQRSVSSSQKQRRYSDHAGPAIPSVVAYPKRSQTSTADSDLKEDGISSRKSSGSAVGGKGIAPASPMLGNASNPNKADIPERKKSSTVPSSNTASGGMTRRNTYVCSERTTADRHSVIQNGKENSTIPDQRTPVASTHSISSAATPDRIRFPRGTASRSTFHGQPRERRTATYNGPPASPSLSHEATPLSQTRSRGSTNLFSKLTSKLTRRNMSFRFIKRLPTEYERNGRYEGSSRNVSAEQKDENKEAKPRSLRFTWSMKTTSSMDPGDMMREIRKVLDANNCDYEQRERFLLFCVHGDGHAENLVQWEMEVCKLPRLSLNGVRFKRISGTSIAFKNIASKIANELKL
Description: as §1, §2, §3, §4

PIM3 = PIM3 (Homo sapiens, UniProt Q86V86); settings: PIM3 (Entrez PIM3), read-out: Residual activity (%)
Description: as §1, §2, §3, §4

HIPK3 = HIPK3 (Homo sapiens, UniProt Q9H422); settings: HIPK3 (Entrez HIPK3), read-out: Residual activity (%)
Description: as §1, §2, §3, §4

ERK5 = ERK5 (Homo sapiens, UniProt Q13164); settings: ERK5 (Entrez MAPK7), read-out: Residual activity (%)
Description: as §1, §2, §3, §4

ASK1 = ASK1 (Homo sapiens, UniProt Q99683); settings: ASK1 (Entrez MAP3K5), read-out: Residual activity (%)
Description: as §1, §2, §3, §4

PDGFRA = PDGFRA (Homo sapiens, UniProt P16234); settings: PDGFRA (Entrez PDGFRA), read-out: Residual activity (%)
Description: as §1, §2, §3, §4

DYRK3 = DYRK3 (Homo sapiens, UniProt O43781); settings: DYRK3 (Entrez DYRK3), read-out: Residual activity (%)
Description: as §1, §2, §3, §4

COc1ccc(Nc2ncnc3c2ccn3-c2ccc(C)c(C)c2)cc1Cl [compound 36]
remaining activity at 1 µM (CK1γ2): 92%
remaining activity at 1 µM (HER4): 80%
remaining activity at 1 µM (EPH-B2): 97%
remaining activity at 1 µM (LKB1): 101%
remaining activity at 1 µM (DYRK1A): 89%
remaining activity at 1 µM (ERK2): 110%
remaining activity at 1 µM (MPSK1): 96%
remaining activity at 1 µM (MINK1): 107%
remaining activity at 1 µM (BTK): 99%
remaining activity at 1 µM (EPH-A4): 101%
remaining activity at 1 µM (MKK6): 115%
remaining activity at 1 µM (RIPK2): 92%
remaining activity at 1 µM (p38b MAPK): 103%
remaining activity at 1 µM (PAK2): 99%
remaining activity at 1 µM (OSR1): 87%
remaining activity at 1 µM (CAMK1): 99%
remaining activity at 1 µM (CDK2-Cyclin A): 100%
remaining activity at 1 µM (MNK2): 90%
remaining activity at 1 µM (CK2): 97%
remaining activity at 1 µM (JNK1): 85%
remaining activity at 1 µM (SIK3): 123%
remaining activity at 1 µM (PKCa): 96%
remaining activity at 1 µM (MLK1): 70%
remaining activity at 1 µM (GSK3b): 102%
remaining activity at 1 µM (MARK3): 104%
remaining activity at 1 µM (PIM3): 87%
remaining activity at 1 µM (HIPK3): 76%
remaining activity at 1 µM (ERK5): 95%
remaining activity at 1 µM (ASK1): 107%
remaining activity at 1 µM (PDGFRA): 70%
remaining activity at 1 µM (DYRK3): 68%
